Test results taken from patent US20060069123A1, “Substituted dipiperidine CCR2 antagonists” (priority 2004, published 2006).
pIC50: −log10 of the molar value.

The molecules below were run against T1, CCR2 (Homo sapiens, UniProt P41597). Conditions: not given.
T1 sequence (P41597 1-360 isoform P41597-2): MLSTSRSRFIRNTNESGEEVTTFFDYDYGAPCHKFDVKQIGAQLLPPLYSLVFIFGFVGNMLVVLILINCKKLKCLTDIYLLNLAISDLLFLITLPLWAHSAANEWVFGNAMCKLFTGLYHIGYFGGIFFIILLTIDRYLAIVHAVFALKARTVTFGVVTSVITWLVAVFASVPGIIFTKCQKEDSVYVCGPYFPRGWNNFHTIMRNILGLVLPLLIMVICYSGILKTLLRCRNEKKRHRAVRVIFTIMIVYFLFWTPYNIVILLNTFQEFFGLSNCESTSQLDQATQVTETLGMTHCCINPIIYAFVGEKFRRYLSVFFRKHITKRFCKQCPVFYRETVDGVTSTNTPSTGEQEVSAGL

| Structure (SMILES) | pIC50 |
| --- | --- |
| CN(C)CC(C1CCN(C(=O)/C=C/c2cc(F)cc(F)c2)CC1)N1CCC(c2c[nH]c3ccccc23)CC1 (stereo not drawn) [Cpd 130, (2E)-3-(3,5-difluoro-phenyl)-1-(4-{2-dimethylamino-1-[4-(1H-indol-3-yl)-piperidin-1-yl]-ethyl}-piperidin-1-yl)-propenone] | 5.07 |
| O=C(/C=C/c1ccc(Cl)c(Cl)c1)N1CCC(C(CO)N2CCC(c3nccs3)CC2)CC1 (stereo not drawn) [Cpd 196] | 5.24 |
| CS(=O)(=O)Nc1ccc(C2CCN(C(CO)C3CCN(C(=O)/C=C/c4ccc(Cl)c(Cl)c4)CC3)CC2)cc1 (stereo not drawn) [Cpd 210, N-{4-[1-(1-{1-[(2E)-3-(3,4-dichloro-phenyl)-acryloyl]-piperidin-4-yl}-2-hydroxy-ethyl)-piperidin-4-yl]-phenyl}-methanesulfonamide] | 5.30 |
| COC(=O)C(C1CCN(C(=O)/C=C/c2cc(F)cc(F)c2)CC1)N1CCC(c2ccc(OC)cc2)CC1 (stereo not drawn) [Cpd 3, {1-[(2E)-3-(3,5-difluoro-phenyl)-acryloyl]-piperidin-4-yl}-[4-(4-methoxy-phenyl)-piperidin-1-yl]-acetic acid methyl ester] | 5.42 |
| COC(=O)NCC(C1CCN(C(=O)/C=C/c2cc(F)cc(F)c2)CC1)N1CCC(c2c[nH]c3ccccc23)CC1 (stereo not drawn) [Cpd 239] | 5.52 |
| COc1ccc(NC(=O)N2CCC(C(C(=O)O)N3CCC(c4c[nH]c5ccccc45)CC3)CC2)cc1OC (stereo not drawn) [Cpd 66, [1-(3,4-dimethoxy-phenylcarbamoyl)-piperidin-4-yl]-[4-(1H-indol-3-yl)-piperidin-1-yl]-acetic acid] | 4.75 |

Next, values leading:

| pIC50 | Structure (SMILES) |
| --- | --- |
| 7.52 | N=C(NC(=O)c1ccc(Cl)c(Cl)c1)N1CCC(C(C(=O)O)N2CCC(c3c[nH]c4ccccc34)CC2)CC1 (stereo not drawn) [Cpd 50, {1-[(3,4-dichloro-benzoylamino)-imino-methyl]-piperidin-4-yl}-[4-(1H-indol-3-yl)-piperidin-1-yl]-acetic acid] |
| 6.17 | O=CNCC(C1CCN(C(=O)/C=C/c2ccc(Cl)c(Cl)c2)CC1)N1CCC(c2c[nH]c3ccccc23)CC1 (stereo not drawn) [Cpd 222] |
| 6.43 | O=C(O)C(C1CCN(C(=O)/C=C/c2cc(F)c(F)c(F)c2)CC1)N1CCC(c2ccc(Cl)cc2)CC1 (stereo not drawn) [Cpd 4, [4-(4-chloro-phenyl)-piperidin-1-yl]-{1-[(2E)-3-(3,4,5-trifluoro-phenyl)-acryloyl]-piperidin-4-yl}-acetic acid] |
| 5.64 | O=C(/C=C/c1cc(F)cc(F)c1)N1CCC(C(CO)N2CCC(c3nccs3)CC2)CC1 (stereo not drawn) [Cpd 194, (2E)-3-(3,5-difluoro-phenyl)-1-{4-[2-hydroxy-1-(4-thiazol-2-yl-piperidin-1-yl)-ethyl]-piperidin-1-yl}-propenone] |
| 5.68 | CCNC(=O)NCC(C1CCN(C(=O)/C=C/c2ccc(Cl)c(Cl)c2)CC1)N1CCC(c2c[nH]c3ccccc23)CC1 (stereo not drawn) [Cpd 230] |
| 6.52 | N=C(NC(=O)c1cc(F)cc(F)c1)N1CCC(C(C(=O)O)N2CCC(c3c[nH]c4ccccc34)CC2)CC1 (stereo not drawn) [Cpd 51, {1-[(3,5-difluoro-benzoylamino)-imino-methyl]-piperidin-4-yl}-[4-(1H-indol-3-yl)-piperidin-1-yl]-acetic acid] |
| 5.92 | COc1cccc(C2CCN(C(CO)C3CCN(C(=O)/C=C/c4cc(F)cc(F)c4)CC3)CC2)c1 (stereo not drawn) [Cpd 197] |
| 6.07 | COc1ccc(NC(=O)N2CCC(C(C(=O)O)N3CCC(c4c[nH]c5ccccc45)CC3)CC2)cc1Cl (stereo not drawn) [Cpd 67, [1-(3-chloro-4-methoxy-phenylcarbamoyl)-piperidin-4-yl]-[4-(1H-indol-3-yl)-piperidin-1-yl]-acetic acid] |

Same assay, conditions: read-out: Inhibition of MCP-1 Binding, percent inhibition

| inhibition at 25 µM [%] | Structure (SMILES) |
| --- | --- |
| 52 | CS(=O)(=O)Nc1ccc(C2CCN(C(CO)C3CCN(C(=O)/C=C/c4cc(F)c(F)c(F)c4)CC3)CC2)cc1 (stereo not drawn) [Cpd 209, N-{4-[1-(2-hydroxy-1-{1-[(2E)-3-(3,4,5-trifluoro-phenyl)-acryloyl]-piperidin-4-yl}-ethyl)-piperidin-4-yl]-phenyl}-methanesulfonamide] |
